Tests used:
Format in all cases: biochemical
[1] = biological target: T1, Cathepsin C (Sigma, C8511) (Bos taurus, UniProt Q3ZCJ8); assay: Selectivity study: cathepsin C (Gly-Phe-pNA); details: 1 hour at 37° C., read-out: Cathepsins (IC50, nM) C
T1 construct: purchased Sigma C8511
Experimental: (§1) Test 2: Selectivity Study
(§2) Selectivity study for the compounds of the present invention was performed using cathepsin C (Sigma, C8511), cathepsin G (Calbiochem, 219373), cathepsin H (Calbiochem, 219388), cathepsin L (Calbiochem, 219402), and cathepsin S (Eur. J. Biochem. 236, 558 (1996) as enzyme sources.
(§3) Cathepsin C (Sigma, C8511) was dissolved in D.W. buffer (pH 5.5). All inhibitors were prepared in dimethyl sulfoxide (DMSO). In vitro assays for cathepsin C were conducted with Gly-Phe-pNA (Sigma, G-0142) as a substrate. Samples were pre-incubated for 10 minutes at 37° C. Reaction was initiated by the addition of enzyme to samples, which were then incubated for 1 hour at 37° C. The absorbance of p-nitroaniline released was monitored at 405 nm using spectrophotometer.
(§4) The concentrations of the test compounds, which inhibit 50% of cathepsin s C, G, H, L and S activity, are represented as IC50 in Table 2.

[2] = biological target: T2, Cathepsin G (Calbiochem, 219373) (Homo sapiens, UniProt P08311); assay: Selectivity study: cathepsin G (Suc-Ala-Ala-Pro-Phe-pNA); details: 1 hour at 25° C., read-out: Cathepsins (IC50, nM) G
T2 construct: purchased Calbiochem 219373
T2 sequence (P08311 21-244): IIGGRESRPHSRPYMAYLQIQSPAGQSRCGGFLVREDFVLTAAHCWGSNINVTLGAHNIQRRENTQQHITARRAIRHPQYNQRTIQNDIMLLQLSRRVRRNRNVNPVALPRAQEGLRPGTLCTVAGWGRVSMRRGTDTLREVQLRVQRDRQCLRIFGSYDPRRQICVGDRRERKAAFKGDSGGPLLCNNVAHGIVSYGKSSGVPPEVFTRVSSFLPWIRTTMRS
Experimental: as §1, §2
as §3, with “Cathepsin G (Calbiochem, 219373)” for “Cathepsin C (Sigma, C8511)”, “in 50 mM NaOAc and 150 mM NaCl” for “in D.W.”, “cathepsin G” for “cathepsin C”, “with Suc-Ala-Ala-Pro-Phe-pNA (Calbiochem, 219407)” for “with Gly-Phe-pNA (Sigma, G-0142)”, “at 25°” for “at 37°”
as §4

[3] = biological target: T3, Recombinant human cathepsin K (Homo sapiens, UniProt P43235); assay: Inhibition of cathepsin K activity (Z-Phe-Arg-AMC fluorescence assay); details: 25 uM Z-Phe-Arg-AMC, pH 5.5, 1 hour at 37° C.
T3 construct: made in house
T3 sequence (P43235 115-329): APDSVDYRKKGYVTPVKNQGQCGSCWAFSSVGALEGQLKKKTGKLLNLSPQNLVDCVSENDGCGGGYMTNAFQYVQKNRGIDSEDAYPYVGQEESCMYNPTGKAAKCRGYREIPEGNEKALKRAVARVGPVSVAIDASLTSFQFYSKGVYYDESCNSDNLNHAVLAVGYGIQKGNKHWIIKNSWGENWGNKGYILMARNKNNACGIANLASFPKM
In short: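 Z-Phe-Arg-AMC at 25 uM in 100 mM Na acetate pH 5.5 with 20 mM cysteine, 5 mM EDTA and 2% final DMSO; reaction started by adding enzyme, then 1 hour at 37° C. Fluorescence read at ex 360/em 460 nm; IC50 is the concentration giving 50% inhibition.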

[4] = biological target: Recombinant human Cathepsin S (Homo sapiens, UniProt P25774); assay: Selectivity study: cathepsin S (Z-Val-Val-AMC); details: 30 minutes at 37° C., read-out: Cathepsins (IC50, nM) S
Experimental: as §1, §2
Recombinant human Cathepsin S (Eur. J. Biochem. 236, 558 (1996) was dissolved in 0.1 M NaOAc 1 mM EDTA-4Na buffer (pH 5.5). All inhibitors were prepared in dimethyl sulfoxide (DMSO). In vitro assays for cathepsin S were conducted with Z-Val-Val-AMC (BACHEM, 1-1160) as a substrate. Samples were pre-incubated for 10 minutes at 4° C. Reaction was initiated by the addition of enzyme to samples, which were then incubated for 30 minutes at 37° C. The florescence of AMC (7-amino-4-methylcoumarin) released was monitored at 465 nm (excitation wavelength 360 nm), using fluorescence spectrophotometer.
as §4

[5] = biological target: T4, Cathepsin L (Calbiochem, 219402) (Homo sapiens, UniProt P07711); assay: Selectivity study: cathepsin L (Z-Phe-Arg-AMC); details: 1 hour at 25° C., read-out: Cathepsins (IC50, nM) L
T4 construct: purchased Calbiochem 219402
Experimental: as §1, §2
Cathepsin L (Calbiochem, 219402) was dissolved in 50 mM NaOAc buffer (pH 5.0). All inhibitors were prepared in dimethyl sulfoxide (DMSO). […] Samples were pre-incubated for 5 minutes at 25° C. Reaction was initiated by the addition of enzyme to samples, which were then incubated for 1 hour at 25° C. The fluorescence of AMC (7-amino-4-methylcoumarin) was monitored at 460 nm (excitation wavelength 360 nm), using fluorescence spectrophotometer.
as §4

[6] = biological target: T5, Cathepsin H (Calbiochem, 219388) (Homo sapiens, UniProt P09668); assay: Selectivity study: cathepsin H (L-Arg-pNA); details: 1 hour at 40° C., read-out: Cathepsins (IC50, nM) H
T5 construct: purchased Calbiochem 219388
T5 sequence (P09668 98-335): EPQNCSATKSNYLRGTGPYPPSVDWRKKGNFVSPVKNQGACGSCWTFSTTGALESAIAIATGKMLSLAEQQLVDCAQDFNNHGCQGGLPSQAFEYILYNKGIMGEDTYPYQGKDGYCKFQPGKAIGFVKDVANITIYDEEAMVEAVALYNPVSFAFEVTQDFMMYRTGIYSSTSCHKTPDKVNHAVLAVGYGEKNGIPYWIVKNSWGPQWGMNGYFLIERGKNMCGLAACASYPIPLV
Experimental: as §1, §2
Cathepsin H (Calbiochem, 219388) was dissolved in 20 mM NaOAc, 1 mM EDTA-2Na and 100 mM NaCl buffer (pH 4.6). All inhibitors were prepared dimethyl sulfoxide (DMSO). In vitro assays for cathepsin H were conducted with L-Arg-pNA (BACHEM, 1-1160) as a substrate. Samples were pre-incubated for 5 minutes at 40° C. Reaction was initiated by the addition of enzyme to samples, which were then incubated for 1 hour at 40° C. The absorbance of p-nitroaniline released was monitored at 405 nm using spectrophotometer.
as §4

T4 sequence (P07711 114-333): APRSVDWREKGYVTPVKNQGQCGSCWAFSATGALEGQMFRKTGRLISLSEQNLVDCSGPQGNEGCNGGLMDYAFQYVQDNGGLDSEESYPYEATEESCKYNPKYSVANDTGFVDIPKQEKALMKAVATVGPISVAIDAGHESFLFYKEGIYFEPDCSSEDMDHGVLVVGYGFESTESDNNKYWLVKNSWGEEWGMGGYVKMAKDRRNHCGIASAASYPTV
Chain of Recombinant human Cathepsin S (P25774 115-331): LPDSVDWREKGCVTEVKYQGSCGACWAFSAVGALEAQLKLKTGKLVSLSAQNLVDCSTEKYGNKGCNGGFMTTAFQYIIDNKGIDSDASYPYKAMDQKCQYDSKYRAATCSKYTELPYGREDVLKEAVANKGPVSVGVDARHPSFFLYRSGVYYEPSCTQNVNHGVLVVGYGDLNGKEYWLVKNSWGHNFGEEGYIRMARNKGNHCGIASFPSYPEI
T1 sequence (Q3ZCJ8 25-463): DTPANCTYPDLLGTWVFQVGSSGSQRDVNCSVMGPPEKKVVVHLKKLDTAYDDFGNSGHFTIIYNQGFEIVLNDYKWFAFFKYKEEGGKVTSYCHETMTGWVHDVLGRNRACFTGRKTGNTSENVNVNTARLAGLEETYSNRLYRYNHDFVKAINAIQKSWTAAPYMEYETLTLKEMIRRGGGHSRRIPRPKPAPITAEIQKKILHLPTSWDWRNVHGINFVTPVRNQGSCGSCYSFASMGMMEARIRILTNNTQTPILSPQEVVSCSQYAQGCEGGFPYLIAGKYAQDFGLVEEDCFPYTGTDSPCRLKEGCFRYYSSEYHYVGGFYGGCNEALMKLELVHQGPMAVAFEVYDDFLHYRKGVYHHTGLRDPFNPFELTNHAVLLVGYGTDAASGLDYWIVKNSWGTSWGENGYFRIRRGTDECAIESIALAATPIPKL

SMILES	IC50 [1] [nM]	IC50 [2] [nM]	IC50 [3] [nM]	IC50 [4] [nM]	IC50 [5] [nM]	IC50 [6] [nM]
CC(C)S(=O)(=O)c1ccccc1N1CCC(NC(=O)C2(NC(=O)c3ccco3)CCCCC2)C(=O)C1 (stereo not shown) [Example 80, 4-[N-[1-[N-(furan-2-ylcarbonyl)amino]cyclohexanecarbonyl]amino]-1-(2-isopropylsulfonylphenyl)piperidin-3-one]	> 1000	> 1000	5.05	109	381	> 1000
O=C(NC1(C(=O)NC2CCN(c3ccccc3[N+](=O)[O-])CC2=O)CCCCC1)c1cc2ccccc2o1 (stereo not shown) [Example 2, 4-[N-[1-[N-(benzofuran-2-ylcarbonyl)amino]cyclohexanecarbonyl]amino]-1-(2-nitrophenyl)piperidin-3-one]	> 1000	> 1000	5.97	2100	2100	> 1000
COc1ccc(N2CCC(NC(=O)C3(NC(=O)c4ccc(F)cc4)CCCCC3)C(=O)C2)c(S(C)(=O)=O)c1 (stereo not shown) [Example 148, 4-[N-[1-[N-(4-fluorobenzoyl)amino]cyclohexanecarbonyl]amino]-1-(2-methanesulfonyl-4-methoxyphenyl)piperidin-3-one]	> 1000	> 1000	3.12	141	178	> 1000
O=C(NC1(C(=O)NC2CCN(c3ccccc3-n3cccc3)CC2=O)CCCCC1)c1cc2ccccc2o1 (stereo not shown) [Example 60, 4-[N-[1-[N-(benzofuran-2-ylcarbonyl)amino]cyclohexanecarbonyl]amino]-1-[2-(pyrrol-1-yl)phenyl]piperidin-3-one]	> 1000	> 1000	–	> 150	103	> 1000
O=C(NC1(C(=O)NC2CCN(c3ccc(F)cc3N3CCC3=O)CC2=O)CCCCC1)c1ccco1 (stereo not shown) [Example 94, 4-[N-[1-[N-(furan-2-ylcarbonyl)amino]cyclohexanecarbonyl]amino]-1-[4-fluoro-2-(azetidin-2-one-1-yl)phenyl]piperidin-3-one]	> 1000	> 1000	–	197	1450	> 1000
CS(=O)(=O)c1cc(F)ccc1N1CCC(NC(=O)C2(NC(=O)c3ccc(F)cc3)CCCCC2)C(=O)C1 (stereo not shown) [Example 147, 4-[N-[1-[N-(4-fluorobenzoyl)amino]cyclohexanecarbonyl]amino]-1-(4-fluoro-2-methanesulfonylphenyl)piperidin-3-one]	> 1000	> 1000	4.77	214	249	> 1000
O=C(NC1(C(=O)NC2CCN(c3ccccc3N3CC=CC3)CC2=O)CCCCC1)c1cc2ccccc2o1 (stereo not shown) [Example 57]	> 1000	> 1000	–	731	285	> 1000
CS(=O)(=O)c1ccccc1N1CCC(NC(=O)C2(NC(=O)c3ccco3)CCCCC2)C(=O)C1 (stereo not shown) [Example 76, 4-[N-[1-[N-(furan-2-ylcarbonyl)amino]cyclohexanecarbonyl]amino]-1-(2-methanesulfonylphenyl)piperidin-3-one]	> 2460	> 2460	8.17	204	971	> 2460

More lines, now with the values ahead:

IC50 [1] [nM]	IC50 [2] [nM]	IC50 [3] [nM]	IC50 [4] [nM]	IC50 [5] [nM]	IC50 [6] [nM]	SMILES
> 1000	> 1000	6.24	212	986	> 1000	COc1ccc(N2CCC(NC(=O)C3(NC(=O)c4ccco4)CCCCC3)C(=O)C2)c(S(C)(=O)=O)c1 (stereo not shown) [Example 84, 4-[N-[1-[N-(furan-2-ylcarbonyl)amino]cyclohexanecarbonyl]amino]-1-(4-methoxy-2-methylsulfonylphenyl)piperidin-3-one]
> 1000	> 1000	–	> 300	> 300	> 1000	CN(C)C(=O)c1ccccc1N1CCC(NC(=O)C2(NC(=O)c3cc4ccccc4o3)CCCCC2)C(=O)C1 (stereo not shown) [Example 61, 4-[N-[1-[N-(benzofuran-2-ylcarbonyl)amino]cyclohexanecarbonyl]amino]-1-[2-(N,N-dimethylcarbamoyl)phenyl]piperidin-3-one]
> 1000	> 1000	–	> 450	> 450	> 1000	CNC(=O)c1ccccc1N1CCC(NC(=O)C2(NC(=O)c3cc4ccccc4o3)CCCCC2)C(=O)C1 (stereo not shown) [Example 62, 4-[N-[1-[N-(benzofuran-2-ylcarbonyl)amino]cyclohexanecarbonyl]amino]-1-[2-(N-methylcarbamoyl)phenyl]piperidin-3-one]
> 810	> 810	2.69	177	352	> 810	CS(=O)(=O)c1cc(F)ccc1N1CCC(NC(=O)C2(NC(=O)c3ccco3)CCCCC2)C(=O)C1 (stereo not shown) [Example 83, 4-[N-[1-[N-(furan-2-ylcarbonyl)amino]cyclohexanecarbonyl]amino]-1-(4-fluoro-2-methylsulfonylphenyl)piperidin-3-one]
> 1000	> 1000	0.51	> 150	32.5	> 1000	O=C(NC1(C(=O)NC2CCN(c3ccccc3N3CCCS3(=O)=O)CC2=O)CCCCC1)c1cc2ccccc2o1 (stereo not shown) [Example 75]
394	> 690	4.96	460	574	> 690	O=C(NC1(C(=O)NC2CCN(c3ccccc3N3CCCC3=O)CC2=O)CCCCC1)c1cc2ccccc2o1 (stereo not shown) [Example 44, 4-[N-[1-[N-(benzofuran-2-ylcarbonyl)amino]cyclohexanecarbonyl]amino]-1-[2-(pyrrolidin-2-one-1-yl)phenyl]piperidin-3-one]

From patent US7342027B2 (Yuhan Corporation, priority 2002, dated 2008)
